Reference: article PMC10107299, “Neutralizing the Impact of the Virulence Factor LecA from Pseudomonas aeruginosa on Human Cells with New Glycomimetic Inhibitors” (Angewandte Chemie (International Ed. in English), 2023)

Experiments:
LecA [1] = biological target: T1, LecA (Pseudomonas aeruginosa, UniProt Q05097); assay: Direct binding to immobilized LecA by surface plasmon resonance (SPR); details: for kon: SPR single-cycle kinetics, 25 °C, N=3 (I1 N=1); for Relative potency r.p. (SPR): compared to respective monovalent compound in each series
T1 construct: made in house
T1 sequence (Q05097 whole entry): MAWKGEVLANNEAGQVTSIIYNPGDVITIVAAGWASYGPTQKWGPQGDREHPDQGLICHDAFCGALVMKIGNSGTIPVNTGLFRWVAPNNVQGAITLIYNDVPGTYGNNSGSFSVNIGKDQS
Experimental: K d values were oscillating with the number of methylene units present in the linker, presumably linked to the zig‐zag geometry of the hydrocarbon chain.
Expression and purification of LecA as well as competitive binding by fluorescence polarization was performed as described by Joachim et al..[9] […]
Surface plasmon resonance experiments were performed on a BIACORE X100 instrument (GE Healthcare) at 25 °C as described by Zahorska et. al..[8] Averages and standard deviations were calculated from three independent experiments. […]
Figure S3: SPR of divalent LecA ligands from benzene series. Sensorgrams obtained from SPR single-cycle kinetics experiments. Five different concentrations of each compound (0, 10, 50, 100, 200 nM) were sequentially injected to obtain the experimental sensorgrams (blue lines), which were then fitted by a 1:1 model (orange) on BIACORE evaluation software. […]
Figure S4: SPR of divalent LecA ligands from pyridine and sulfonated series. Sensorgrams obtained from SPR single-cycle kinetics experiments. Five different concentrations of each compound (0, 10, 50, 100, 200 nM) were sequentially injected to obtain the experimental sensorgrams (blue lines), which were then fitted by a 1:1 model (orange) on BIACORE evaluation software.
(also on this page, place not known: Response (RU)0 Response (RU)0 Response (RU) Response (RU) Response (RU) Response (RU) 030060090012001500) […]

LecA [2] = biological target: T1, LecA; assay: Competitive binding assay based on fluorescence polarization
Experimental: All synthesized galactosides were then evaluated for LecA inhibition using a competitive binding assay based on fluorescence polarization (Figure S1).[24]
Expression and purification of LecA as well as competitive binding by fluorescence polarization was performed as described by Joachim et al..[9] The assay was performed in TBS/Ca2+ buffer (20 mM Tris, 137 mM NaCl, 2.6 mM KCl at pH 7.4 supplemented with 1 mM CaCl2) in presence of 25% DMSO. Averages and standard deviations were calculated from at least three independent experiments. […]
RR OR In h i b i to r [µ M ]
R R In h i b i to r [µ M ] […]
R In h i b i to r [µ M ] 30 L2
30 F2 40 K2 In h i b i to r [µ M ] […]
In h i b i to r [µ M ] In h i b i to r [µ M ]
Figure S1: Evaluation of amide divalent LecA ligands in a competitive binding assay based on fluorescence […]
representative experiment is shown or each series. Averages and standard deviations from at least three independent titrations of triplicates each.
[…] Fluorescence polarization [mP] -1 0 1 2 3 0 1001010 Me-α-Gal pNO2-Ph-β-Gal 1000 Inhibitor [µM] Fluorescence polarization [mP])

[3] = In vitro metabolic stability, human liver microsomes; type: in vitro ADME; details: N=3, read-out: CLint HLM
Experimental: We then determined the in vitro metabolic stability in plasma and liver microsomes as well as plasma protein binding for a selected subset of the synthesized LecA inhibitors, i.e. D1, D2, H1, H2 and L2 and compared them to the parent bisacylhydrazone 14 (Table 2). […] The metabolic stability of the compounds differed in presence of human liver microsomes (HLM). Introduction of a pyridine ring decreased stability (H1 CLint=28.6 μL min^−1/mg protein, H2 CLint=32.5 μL min^−1/mg protein) compared to the benzene analogues (D1 CLint=21.9 μL min^−1/mg protein, D2 CLint=21.0 μL min^−1/mg protein) and to the parent acylhydrazone 14 (CLint=19.6 μL min^−1/mg protein). […]
mixer (Eppendorf). Acetonitrile and caffeine were dispensed using a Mantis Formulatrix. Then samples were centrifuged for 20 min at 2.270 x g at 4 °C and the supernatants were transferred to 96-well Greiner V-bottom plates. Peak areas of each compound and of the internal standard were analyzed using the MultiQuant 3.0 software (AB Sciex). Peak areas of the respective compound were normalized to the internal standard peak area and to the respective peak areas at time point 0 min: (C/D)/(A/B) with A: peak area of the compound at time point 0 min, B: peak area of the internal standard at time point 0 min, C: peak area of the compound at the respective time point, D: peak area of the internal standard at the respective time point.
In vitro metabolic stability assay
Liver microsomes (mouse and human, Thermo Fisher) were thawed slowly on ice. 20 mg/mL of microsomes, 2 µL of a 100 µM solution of every compound and 183 µL of 100 mM phosphate buffer were incubated 5 min at 37 °C in a water bath. Reactions were initiated using 10 µL of 20 mM NADPH (CarlRoth). Samples were incubated in three replicates at 37 °C under gentle agitation at 150 rpm. At 0, 5, 15, 30, and 60 min, reactions were terminated by the addition of 180 µL acetonitrile using a Mantis Formulatrix dispenser. Samples were vortexed for 5 min using an Eppendorf MixMate vortex mixer and centrifuged at 2.270 x g for 20 min at 4 °C. The supernatants were transferred to 96-well Greiner V-bottom plates, sealed and analyzed according to the section HPLC-MS analysis. Peak areas of the respective time point of the compounds were normalized to the peak area at time point 0 min. Then half-life was calculated using linear regression (Microsoft Excel). Clint [µL/min/mg protein] was calculated using the following formula: […]

Compound	Kd (LecA [1])	koff (LecA [1])	kon (LecA [1])	Relative potency r.p. (SPR) (LecA [1])	IC50 (LecA [2])	microsomal CLint at 1 µM [3]
O=C(CCc1ccc(O[C@@H]2O[C@H](CO)[C@H](O)[C@H](O)[C@H]2O)cc1)Nc1ccc(CCc2ccc(NC(=O)CCc3ccc(O[C@@H]4O[C@H](CO)[C@H](O)[C@H](O)[C@H]4O)cc3)cc2S(=O)(=O)O)c(S(=O)(=O)O)c1 [Compound L2]	0.0328 ± 0.0015 µM	0.00707 ± 0.0011 s⁻¹	215 ± 29 x10^3/Ms	115	4.6 ± 2.2 µM	9.2 µL/min/mg
Cc1ccc(NC(=O)CCc2ccc(O[C@@H]3O[C@H](CO)[C@H](O)[C@H](O)[C@H]3O)cc2)cc1S(=O)(=O)O [Compound K2]	3.79 ± 0.1 µM	–	–	1	14.4 ± 3.6 µM	–
O=C(CCc1ccc(O[C@@H]2O[C@H](CO)[C@H](O)[C@H](O)[C@H]2O)cc1)Nc1ccc(OCCOc2ccc(NC(=O)CCc3ccc(O[C@@H]4O[C@H](CO)[C@H](O)[C@H](O)[C@H]4O)cc3)cc2)cc1 [Compound D2]	0.0231 ± 0.0003 µM	0.00284 ± 6e-05 s⁻¹	123 ± 4.1 x10^3/Ms	233	4.5 ± 1.8 µM	21 µL/min/mg
COc1ccc(NC(=O)CCc2ccc(O[C@@H]3O[C@H](CO)[C@H](O)[C@H](O)[C@H]3O)cc2)cn1 [Compound G2]	2.97 ± 0.08 µM	–	–	1	14.3 ± 7.2 µM	–
O=C(CCc1ccc(O[C@@H]2O[C@H](CO)[C@H](O)[C@H](O)[C@H]2O)cc1)Nc1ccc(OCCOc2ccc(NC(=O)CCc3ccc(O[C@@H]4O[C@H](CO)[C@H](O)[C@H](O)[C@H]4O)cc3)cn2)nc1 [Compound H2]	0.0099 ± 0.0001 µM	0.00141 ± 5e-05 s⁻¹	142 ± 3.5 x10^3/Ms	300	4.8 ± 2.2 µM	32.5 µL/min/mg
O=C(/C=C/c1ccc(O[C@@H]2O[C@H](CO)[C@H](O)[C@H](O)[C@H]2O)cc1)Nc1ccc(OCCOc2ccc(NC(=O)/C=C/c3ccc(O[C@@H]4O[C@H](CO)[C@H](O)[C@H](O)[C@H]4O)cc3)cc2)cc1 [Compound D1]	0.0407 ± 0.003 µM	0.00249 ± 0.00028 s⁻¹	61.1 ± 2.5 x10^3/Ms	128	5.6 ± 3.1 µM	21.9 µL/min/mg
O=C(/C=C/c1ccc(O[C@@H]2O[C@H](CO)[C@H](O)[C@H](O)[C@H]2O)cc1)Nc1ccc(OCCOc2ccc(NC(=O)/C=C/c3ccc(O[C@@H]4O[C@H](CO)[C@H](O)[C@H](O)[C@H]4O)cc3)cn2)nc1 [Compound H1]	0.0137 ± 0.0016 µM	0.00165 ± 0.00012 s⁻¹	121 ± 6.8 x10^3/Ms	217	8 ± 4.3 µM	28.6 µL/min/mg
